Assays:
[1] = system: Wheat seeds (Triticum aestivum); assay: Wheat seed germination kinetics in additive-modified water; type: in vivo; conditions: additive 0.5% w/v in USA I water
Protocol: Wheat seeds (Triticum aestivum) were germinated using USA I, USA II, and BP I waters described for Example 2. Germination rate using un-supplemented (control) water was compared to that with the same water variously supplemented with a cyclodextrin component, and/or a bioactive agent, as an active component of cellular hydration. For each condition, ten seeds were placed in continuous water contact in a Petri-type dish kept at 25 C in 12 hr light/dark cycles. Photometric images were recorded on days 1 to 6 after seeding. The percentage of seeds germinated was calculated and compared as a function of time and of the applied additive concentrations.
Water samples for seed germination were used alone with no additive, or containing cyclodextrins, or containing clathrate inclusion complexes of cyclodextrin with L-arginine or with nicotinamide (both obtained from Sigma Chemical Co.; St. Louis, Mo.), or with L-carnitine (from Lonza AG; Switzerland). […] Additive solutions were prepared fresh on the day of germination start.
Parent cyclodextrins α-cyclodextrin (ACD), β-cyclodextrin (BCD), and γ-cyclodextrin (GCD), were obtained from Wacker Chemie (Munich, Germany). The following derivatized cyclodextrins were obtained from Cyclolab Ltd. (Budapest, Hungary): hydroxypropylated-beta-cyclodextrin (DS˜3)(HPBCD), carboxymethylated-β-cyclodextrin (DS˜3.5)(CMBCD), 2-hydroxy-3-N,N,N-trimethylamino)propyl-β-cyclodextrin chloride (DS˜3.6)(QABCD).
Germination kinetics in control and additive-modified water under identical conditions were quantified as the percentage of the seeds having a sprout. Each determination consisted of 100 seeds for each parameter. Results are reported in Table 1, below, and in FIGS. 11-13.

C. elegans nematodes = assay: Lifespan of C. elegans in hydration modified water media; type: in vivo; conditions: for effect on C. elegans survival: added to culture media, result in words; for Animals alive: USA I water
Protocol: C. elegans nematodes were grown in petri-type dishes containing normal nutrient liquid media prepared alternatively with USA I water (described in Example 2) lacking any further additive component (control) or the same water supplemented with a parent α-, β-, or γ-cyclodextrin, and/or a bioactive agent, as an active component of cellular hydration. Fifty±3 worms were transferred to each dish. Each condition was repeated in triplicate. Experiments were repeated for USA II and BP I waters described in Example 2. A. Addition of parent α-, β- and γ-cyclodextrins. B. Addition of L-arginine and nicotinamide. C. Addition of inclusion complexes of cyclodextrins with L-arginine and nicotinamide.

[2] = NIR spectroscopy of water bonding with cyclodextrin additives; type: physicochemical
Protocol: Hydration bond energies in pure waters and solutions of the same waters containing cyclodextrin compounds were assayed using IR spectroscopy in the near and middle infrared ranges. To record linear signals throughout an entire wavelength range, attenuation from water absorbance was minimized with a short optical length cuvette.
NIR range spectra were registered on a FOSS NIR Systems, Inc. 6500 spectrometer and Sample Transport Module (STM) using a 1 mm-es cuvette. […]
Three samples of water were used in the present study. A first water sample (USA I) was obtained from the U.S. and was purified by reverse osmosis, carbon filtration, ultraviolet light exposure, membrane filtration to 0.2 micron absolute, and ozonation. A second water sample (USA II) was also obtained from the U.S. A third water sample (BP I) was obtained from Budapest, Hungary.
The following cyclodextrins were added to the above described water samples at a concentration range of 0.1%-5% w/v: • α-cyclodextrin (αCD also denoted as ACD), Lot. No. CYL-2322. • β-cyclodextrin (βCD also denoted as BCD). Lot. No. CYL-2518/2. • γ-cyclodextrin (γCD also denoted as GCD), Lot. No. CYL-2323. • 2-hydroxypropyl-β-cyclodextrin (HPβCD, HPBCD), DS*=3.5, Lot. No. CYL-2232. • 2-hydroxypropyl-γ-cyclodextrin (HPCD, HPGCD), DS*=4.8, Lot. No. CYL-2258. • carboxymethyl-β-cyclodextrin (CMBCD), Lot. No. CYL-2576. • quaternary-ammonium-β-cyclodextrin (QABCD).

[3] = life span 10 days, parent cyclodextrin 0.1% w/v in media, Table 3
[4] = life span 15 days, parent cyclodextrin 0.1% w/v in media, Table 3
[5] = life span 18 days, parent cyclodextrin 0.1% w/v in media, Table 3
[6] = life span 10 days, derivatized cyclodextrin 0.1% w/v in media, Table 4
[7] = life span 15 days, derivatized cyclodextrin 0.1% w/v in media, Table 4
[8] = life span 18 days, derivatized cyclodextrin 0.1% w/v in media, Table 4
[9] = wavelength region 900-1200 nm, FIG. 7

Compound	Animals alive (C. elegans nematodes; [3])	Animals alive (C. elegans nematodes; [4])	Animals alive (C. elegans nematodes; [5])	Animals alive (C. elegans nematodes; [6])	Animals alive (C. elegans nematodes; [7])	Animals alive (C. elegans nematodes; [8])	water-bond interactions, second-derivative NIR spectra ([2]; 1200-1500 nm, FIG. 8)	water-bond interactions, second-derivative NIR spectra ([2]; 1620-1710 nm, FIG. 9)	water-bond interactions, second-derivative NIR spectra ([2]; 2170-2370 nm, FIG. 10)	water-bond interactions, second-derivative NIR spectra [2, 9]	other results
N=C(N)NCCC[C@H](N)C(=O)O [L-Arg, L-arginine, reference compound]											wheat seed germination rate ([1]; day 0, Table 1): 0 percentage of total seeds; wheat seed germination rate ([1]; day 1, Table 1): 0 percentage of total seeds; wheat seed germination rate ([1]; day 2, Table 1): 30 percentage of total seeds; wheat seed germination rate ([1]; day 3, Table 1): 45 percentage of total seeds; wheat seed germination rate ([1]; day 4, Table 1): 60 percentage of total seeds; effect on C. elegans survival (C. elegans nematodes): little effect
OC[C@H]1O[C@@H]2O[C@H]3[C@H](O)[C@@H](O)[C@@H](O[C@H]4[C@H](O)[C@@H](O)[C@@H](O[C@H]5[C@H](O)[C@@H](O)[C@@H](O[C@H]6[C@H](O)[C@@H](O)[C@@H](O[C@H]7[C@H](O)[C@@H](O)[C@@H](O[C@H]8[C@H](O)[C@@H](O)[C@@H](O[C@H]1[C@H](O)[C@H]2O)O[C@@H]8CO)O[C@@H]7CO)O[C@@H]6CO)O[C@@H]5CO)O[C@@H]4CO)O[C@@H]3CO [β-Cyclodextrin, β-cyclodextrin]	100 % of initial	18 % of initial	0 % of initial								
carboxymethyl-β-cyclodextrin				94 % of initial	11 % of initial	0 % of initial	further significantly modified	significantly modified	significantly modified	further significantly modified	
OC[C@H]1O[C@@H]2O[C@H]3[C@H](O)[C@@H](O)[C@@H](O[C@H]4[C@H](O)[C@@H](O)[C@@H](O[C@H]5[C@H](O)[C@@H](O)[C@@H](O[C@H]6[C@H](O)[C@@H](O)[C@@H](O[C@H]7[C@H](O)[C@@H](O)[C@@H](O[C@H]8[C@H](O)[C@@H](O)[C@@H](O[C@H]9[C@H](O)[C@@H](O)[C@@H](O[C@H]1[C@H](O)[C@H]2O)O[C@@H]9CO)O[C@@H]8CO)O[C@@H]7CO)O[C@@H]6CO)O[C@@H]5CO)O[C@@H]4CO)O[C@@H]3CO [γ-Cyclodextrin, γ-cyclodextrin]	100 % of initial	13 % of initial	2 % of initial								
CC(O)COC[C@H]1O[C@@H]2O[C@H]3[C@H](O)[C@@H](O)[C@@H](O[C@H]4[C@H](O)[C@@H](O)[C@@H](O[C@H]5[C@H](O)[C@@H](O)[C@@H](O[C@H]6[C@H](O)[C@@H](O)[C@@H](O[C@H]7[C@H](O)[C@@H](O)[C@@H](O[C@H]8[C@H](O)[C@@H](O)[C@@H](O[C@H]1[C@H](O)[C@H]2O)O[C@@H]8COCC(C)O)O[C@@H]7COCC(C)O)O[C@@H]6COCC(C)O)O[C@@H]5COCC(C)O)O[C@@H]4COCC(C)O)O[C@@H]3COCC(C)O (stereo partly drawn) [HP-β-Cyclodextrin, 2-hydroxypropyl-β-cyclodextrin]				96 % of initial	17 % of initial	0 % of initial	significantly modified	significantly modified	significantly modified	further significantly modified	
NC(=O)c1cccnc1 [nicotinamide, reference compound]											wheat seed germination rate ([1]; day 0, Table 2): 0 percentage of the seeds; wheat seed germination rate ([1]; day 1, Table 2): 0 percentage of the seeds; wheat seed germination rate ([1]; day 2, Table 2): 4 percentage of the seeds; wheat seed germination rate ([1]; day 3, Table 2): 10 percentage of the seeds; wheat seed germination rate ([1]; day 4, Table 2): 60 percentage of the seeds; effect on C. elegans survival (C. elegans nematodes): little effect
OC[C@H]1O[C@@H]2O[C@H]3[C@H](O)[C@@H](O)[C@@H](O[C@H]4[C@H](O)[C@@H](O)[C@@H](O[C@H]5[C@H](O)[C@@H](O)[C@@H](O[C@H]6[C@H](O)[C@@H](O)[C@@H](O[C@H]7[C@H](O)[C@@H](O)[C@@H](O[C@H]1[C@H](O)[C@H]2O)O[C@@H]7CO)O[C@@H]6CO)O[C@@H]5CO)O[C@@H]4CO)O[C@@H]3CO [α-Cyclodextrin, α-cyclodextrin]	100 % of initial	20 % of initial	2 % of initial								wheat seed germination rate ([1]; day 0, Table 1): 0 percentage of total seeds; wheat seed germination rate ([1]; day 0, Table 2): 0 percentage of the seeds; wheat seed germination rate ([1]; day 1, Table 1): 0 percentage of total seeds; wheat seed germination rate ([1]; day 1, Table 2): 11 percentage of the seeds; wheat seed germination rate ([1]; day 2, Table 1): 48 percentage of total seeds; wheat seed germination rate ([1]; day 2, Table 2): 18 percentage of the seeds; wheat seed germination rate ([1]; day 3, Table 1): 70 percentage of total seeds; wheat seed germination rate ([1]; day 3, Table 2): 68 percentage of the seeds; wheat seed germination rate ([1]; day 4, Table 1): 85 percentage of total seeds; wheat seed germination rate ([1]; day 4, Table 2): 92 percentage of the seeds
2-hydroxy-3-N,N,N-trimethylamino)propyl-β-cyclodextrin chloride [Quaternaryammonium-β-Cyclodextrin]				98 % of initial	13 % of initial	2 % of initial	significantly modified	significantly modified	further significantly modified	significantly modified	modified micro-structure of hydrogen bonds in bulk water (spectral changes), ranking of effect ([2]; among cyclodextrin-treated water samples, FIGS. 9 and 10): largest

— US10610524B2, “Cellular hydration compositions” (Eastpond Laboratories Limited, priority 2010, dated 2020)
